Measurements: patent US5869484A, “Phenylcarbamate derivatives suitable to the use as anticholinesterase substances” (priority 1994, dated 1999)

Legend:
[1] = target: T1, AChE E. eel (Electrophorus electricus, UniProt O42275); test: biochemical; design: species or system Electric Eel
T1 construct: purchased Sigma Chemical
Description: (§1) The incubation time between enzyme and product used for the determinations has been 10'.
(§2) The acetylcholinesterase from human erythrocytes (AChE hRBC), the acetylcholinesterase from Electric Eel (AChE E.eel) and the butyrylcholinesterase from human serum (BuChE hserum) coming from the Sigma Chemical have been used.

[2] = target: T2, AChE hRBC (Homo sapiens, UniProt P22303); test: biochemical; details: for potency compared with eptastigmine, physostigmine or tacrine: comparison from Table 1; for AChE inhibitory activity and selectivity: AChE versus BuChE, Table 1
T2 construct: purchased Sigma Chemical; host or cells: human erythrocytes
Description: as §1, §2

[3] = target: T3, BuChE hserum (Homo sapiens, UniProt P06276); test: Inhibition of butyrylcholinesterase from human serum (Ellman method); type: biochemical; details: for activity on the BuChE: Table 1
T3 construct: purchased Sigma Chemical; host or cells: human serum
Description: as §1, §2

[4] = Acute toxicity (single administration) in rat; details: in vivo, po, os, read-out: Toxicity tests (LD50), rat os

T2 sequence (P22303 32-617 isoform P22303-2 limits assumed): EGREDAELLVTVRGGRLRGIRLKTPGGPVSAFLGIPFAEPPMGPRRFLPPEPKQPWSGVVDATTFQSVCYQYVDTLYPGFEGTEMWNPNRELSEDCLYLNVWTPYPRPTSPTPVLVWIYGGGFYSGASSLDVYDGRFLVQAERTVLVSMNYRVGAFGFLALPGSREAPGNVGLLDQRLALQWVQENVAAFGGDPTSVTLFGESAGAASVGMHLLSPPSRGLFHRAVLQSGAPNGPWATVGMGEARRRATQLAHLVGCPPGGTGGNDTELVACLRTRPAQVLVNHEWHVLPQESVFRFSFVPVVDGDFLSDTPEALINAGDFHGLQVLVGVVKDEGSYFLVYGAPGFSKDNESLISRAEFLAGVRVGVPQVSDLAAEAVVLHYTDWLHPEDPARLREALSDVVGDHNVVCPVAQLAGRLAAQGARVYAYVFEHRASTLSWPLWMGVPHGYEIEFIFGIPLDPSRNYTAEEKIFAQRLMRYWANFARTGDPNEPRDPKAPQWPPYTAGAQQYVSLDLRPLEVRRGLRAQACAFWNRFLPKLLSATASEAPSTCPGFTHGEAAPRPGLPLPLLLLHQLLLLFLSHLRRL
T3 sequence (P06276 29-602): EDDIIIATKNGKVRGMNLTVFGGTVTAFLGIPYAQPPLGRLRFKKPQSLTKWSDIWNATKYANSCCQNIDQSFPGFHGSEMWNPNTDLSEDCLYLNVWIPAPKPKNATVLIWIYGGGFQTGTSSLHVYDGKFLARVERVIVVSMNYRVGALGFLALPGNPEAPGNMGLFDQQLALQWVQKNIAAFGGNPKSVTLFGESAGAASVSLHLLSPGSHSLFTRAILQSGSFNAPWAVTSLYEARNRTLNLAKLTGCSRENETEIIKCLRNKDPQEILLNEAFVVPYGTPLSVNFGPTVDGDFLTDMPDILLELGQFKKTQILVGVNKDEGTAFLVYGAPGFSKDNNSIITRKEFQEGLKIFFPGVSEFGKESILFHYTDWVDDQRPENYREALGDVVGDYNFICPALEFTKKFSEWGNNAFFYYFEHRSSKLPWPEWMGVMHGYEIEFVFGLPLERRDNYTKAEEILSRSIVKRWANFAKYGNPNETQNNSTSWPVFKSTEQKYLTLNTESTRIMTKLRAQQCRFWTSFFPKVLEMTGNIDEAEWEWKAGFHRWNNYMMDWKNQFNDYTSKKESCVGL
T1 sequence (O42275 24-633): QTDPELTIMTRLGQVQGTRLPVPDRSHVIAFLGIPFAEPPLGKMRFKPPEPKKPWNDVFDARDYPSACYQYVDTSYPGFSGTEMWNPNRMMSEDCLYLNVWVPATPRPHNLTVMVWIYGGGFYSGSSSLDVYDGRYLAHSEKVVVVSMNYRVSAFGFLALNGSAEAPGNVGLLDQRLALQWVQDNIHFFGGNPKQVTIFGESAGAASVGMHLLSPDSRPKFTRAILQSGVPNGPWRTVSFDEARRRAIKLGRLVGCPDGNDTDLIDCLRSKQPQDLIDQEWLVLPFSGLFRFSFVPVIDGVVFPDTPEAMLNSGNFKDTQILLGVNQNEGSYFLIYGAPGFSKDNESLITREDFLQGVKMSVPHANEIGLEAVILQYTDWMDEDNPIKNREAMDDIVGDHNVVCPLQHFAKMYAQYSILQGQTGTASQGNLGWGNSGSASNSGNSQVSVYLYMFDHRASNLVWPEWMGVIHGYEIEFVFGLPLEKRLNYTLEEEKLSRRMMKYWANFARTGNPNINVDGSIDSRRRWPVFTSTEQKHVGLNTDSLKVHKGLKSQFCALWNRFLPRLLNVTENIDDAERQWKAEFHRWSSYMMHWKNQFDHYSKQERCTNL

Row | Compound | IC50 [1] | IC50 [2] | potency compared with eptastigmine, physostigmine or tacrine [2] | IC50 [3] | LD50 [4] | AChE inhibitory activity and selectivity [2] | activity on the BuChE [3]
1 | COc1cc2nc(N3CCN(C(=O)CCCCCCCNC(=O)Oc4cccc(C(C)(C)CN(C)C)c4)CC3)nc(N)c2cc1OC [Ex. 12, 3-[(1-dimethylamino-2-methyl)prop-2-yl]-N-[1-[4-(4-amino-6,7-dimethoxy)quinazolin-2-yl]piperazinyl]-8-octanoyl]-phenyl carbamate] | 17 nM | 80 nM | equal or even superior to that of eptastigmine or of physostigmine | 50 nM |  |  | 
2 | CN(C)CC(C)(C)c1cccc(OC(=O)N(C)c2cccc(F)c2)c1 [Ex. 38, 3-[(1-dimethylamino-2-methyl)prop-2-yl]-N-(3-fluoro)phenyl-N-methyl phenylcarbamate] |  | 50 nM | equal or even superior to that of eptastigmine or of physostigmine | > 100000 nM | > 40 mg/kg | potent and selective AChE inhibitory activity | poor activity on the BuChE
3 | CCCCNC(=O)Oc1cccc(C(C)(C)CN(C)C)c1 [Ex. 4, 3-[(1-dimethylamino-2-methyl)prop-2-yl]-N-butylphenyl carbamate] | 250 nM | 130 nM | equal or even superior to that of eptastigmine or of physostigmine | 1.6 nM |  |  | 
4 | CN(C)CC(C)(C)c1cccc(OC(=O)N(C)c2cccc(Cl)c2)c1 [Ex. 26, 3-[(1-dimethylamino-2-methyl)prop-2-yl]-N-(3-chloro)-phenyl-N-methyl-phenylcarbamate] |  | 400 nM |  | 220000 nM |  | potent and selective AChE inhibitory activity | poor activity on the BuChE
5 | CCCCN(C(=O)Oc1cccc(C(C)(C)CN(C)C)c1)c1ccccc1 [Ex. 32, 3-[(1-dimethylamino-2-methyl)prop-2-yl]-N-butyl-N-phenyl phenylcarbamate] |  | 420 nM |  | 70000 nM |  |  | 
6 | CN(C)CC(C)(C)c1cccc(OC(=O)Nc2cccc(F)c2)c1 [Ex. 20, 3-[(1-dimethylamino-2-methyl)prop-2-yl]-N-(3-fluoro)phenyl phenylcarbamate] |  | 220 nM |  | > 100000 nM |  | potent and selective AChE inhibitory activity | poor activity on the BuChE
7 | CCCCCCCNC(=O)Oc1cccc(C(C)(C)CN(C)C)c1 [Ex. 5, 3-[(1-dimethylamino-2-methyl)prop-2-yl]-N-heptyl-phenyl carbamate] | 120 nM | 180 nM | equal or even superior to that of eptastigmine or of physostigmine | 30 nM |  |  | 
8 | COc1cccc(NC(=O)Oc2cccc(C(C)(C)CN(C)C)c2)c1 [Ex. 22, 3-[(1-dimethylamino-2-methyl)prop-2-yl]-N-(3-methoxy)phenyl phenylcarbamate] |  | 210 nM |  | 600 nM |  |  | 
9 | COc1cc2nc(NCCCCCCCNC(=O)Oc3cccc(C(C)(C)CN(C)C)c3)nc(N)c2cc1OC [Ex. 13, 3-[(1-dimethylamino-2-methyl)prop-2-yl]-N-[N-[(4-amino-6,7-dimethoxy)quinazolin-2-yl]aminoheptyl]-phenyl carbamate] | 23 nM | 15 nM | equal or even superior to that of eptastigmine or of physostigmine | 28 nM |  |  | 
10 | C[C@H]1CN(CCCCCCCCNC(=O)Oc2cccc(C(C)(C)CN(C)C)c2)C[C@H](C)O1 (relative stereo) [Ex. 3, 3-[(1-dimethylamino-2-methyl)-prop-2-yl]-N-[8-[4-(trans 2,6-dimethyl)morpholinyl]octyl]-phenylcarbamate] | 1200 nM | 200 nM |  | 20 nM |  |  | 
11 | CN(Cc1ccccc1)CC(C)(C)c1cccc(OC(=O)NCCCCCCCCN2CCOCC2)c1 [Ex. 16, 3-[(1-(N-benzyl-N-methyl)amino-2-methyl)prop-2-yl]-N-[8-(4-morpholinyl)-octyl]-phenylcarbamate] | 14000 nM | 4800 nM |  | 7 nM |  |  | 
12 | CN(C)CC(C)(C)c1cccc(OC(=O)N(C)c2cccc(C(F)(F)F)c2)c1 [Ex. 39, 3-[(1-dimethylamino-2-methyl)prop-2-yl]-N-methyl-N-(3-trifluoromethyl) phenyl phenylcarbamate] |  | 1100 nM |  | > 100000 nM |  | potent and selective AChE inhibitory activity | poor activity on the BuChE
13 | CN(C)CC(C)(C)c1cccc(OC(=O)Nc2ccccc2)c1 [Ex. 19, 3-[1(1-dimethylamino-2-methyl)prop-2-yl]-N-phenyl phenylcarbamate] |  | 100 nM | equal or even superior to that of eptastigmine or of physostigmine | 230 nM |  |  | 
14 | CN(C)CC(C)(C)c1cccc(OC(=O)N(C)c2ccc(Cl)cc2)c1 [Ex. 37, 3-[(1-dimethylamino-2-methyl)prop-2-yl]-N-(4-chloro)phenyl-N-methyl phenylcarbamate] |  | 60 nM | equal or even superior to that of eptastigmine or of physostigmine | 8000 nM |  | potent and selective AChE inhibitory activity | poor activity on the BuChE
15 | Cc1cccc(NC(=O)Oc2cccc(C(C)(C)CN(C)C)c2)c1 [Ex. 21, 3-[(1-dimethylamino-2-methyl)prop-2-yl]-N-(3-methyl)phenyl phenylcarbamate] |  | 600 nM |  | 500 nM |  |  | 
16 | CN(C)CC(C)(C)c1cccc(OC(=O)NCc2ccccc2)c1 [Ex. 24, 3-[(1-dimethylamino-2-methyl)prop-2-yl]-N-benzyl-phenylcarbamate] |  | 60 nM | equal or even superior to that of eptastigmine or of physostigmine | 1.3 nM |  |  | 
17 | CCN(C(=O)Oc1cccc(C(C)(C)CN(C)C)c1)c1ccc(OC)cc1 [Ex. 36, 3-[(1-dimethylamino-2-methyl)prop-2-yl]-N-ethyl-N-(4-methoxy)phenyl phenylcarbamate] |  | 1100 nM |  | 21000 nM |  |  | 
18 | CN(C)CC(C)(C)c1cccc(OC(=O)NCCCCCCCCCCN2CCOCC2)c1 [Ex. 18, 3-[(1-dimethylamino-2-methyl)prop-2-yl]-N-[10-(4-morpholinyl)decyl]-phenylcarbamate] |  | 100 nM | equal or even superior to that of eptastigmine or of physostigmine |  |  |  | 
19 | CC(CN(C)C)c1cccc(OC(=O)NCCCCCCCCN2CCOCC2)c1 (centres unmarked) [Ex. 8, 3-[(1-dimethylamino)prop-2-yl]-N-[8-(4-morpholinyl)octyl]-phenyl carbamate] | 1300 nM | 220 nM |  | 14 nM |  |  | 
20 | CN(C)CC(C)(C)c1cccc(OC(=O)Nc2cccc(Cl)c2)c1 [Ex. 23, 3-[(1-dimethylamino-2-methyl)prop-2-yl]-N-(3-chloro)phenyl phenylcarbamate] |  | 220 nM |  | > 100000 nM |  | potent and selective AChE inhibitory activity | poor activity on the BuChE
